Results as given in patent US20020028469A1, “Method of defining genus of chemical compound and method of designing molecules” (priority 1997, published 2002).

Tests used:
PDEIV = PDEIV inhibition (IC50); format: biochemical; settings: PDEIV inhibitory activity
[1] = Solubility in aqueous solution, noted during coupling; format: physicochemical; settings: methanol used as solvent instead
Protocol: 1: 6 mg Compound C was dissolved in 2 ml methanol in 50 ml centrifuge tube (methanol was used because Compound C is insoluble in aqueous solution).

## CCNc1ncn(Cc2ccc(OC)c(OC3CCCC3)c2)c2nc(C(C)C)nc1-2 [Compound A, 3-(3-cyclopentyloxy-4-methoxybenzyl)-6-ethylamino-8-isopropyl-purine]
PDEIV
  IC50: 410 nM

## COc1ccc(Cn2cncc3nc(C(C)C)nc2-3)cc1OC1CCCC1 [Compound C, 3-(3-cyclopentyloxy-4-methoxybenzyl)-8-isopropyl-3H-purine]
PDEIV
  IC50: 800 nM
[1]
  solubility in aqueous solution: insoluble

## COc1ccc(C2CNC(=O)C2)cc1OC1CCCC1 (stereo not shown) [rolipram, reference compound]
PDEIV
  IC50: 3000 nM
